Test system: female BALB/C mice
Assay: Mouse in vivo imaging of Fluc-mRNA LNP formulations
Parameters: average radiation intensity (mRNA expression): unit not given here
Conditions: for average radiation intensity (mRNA expression): 10 μg Fluc-mRNA LNP intramuscularly
In short: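 Female BALB/C mice (4–6 weeks, 17–19 g) received LNP carrying 10 μg Fluc-mRNA intramuscularly. Imaging substrate given intraperitoneally at 6 h, 24 h, 48 h and 7 d; after 5 min free movement, average radiance read by IVIS Spectrum imaging.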

CCCCCCCCCCCOC(=O)CCCCCN(CCCCCCCC(=O)OC(CCCCCCCC)CCCCCCCC)CCN(C)CCO [YK-201, heptadecan-9-yl-8-(2-((2-hydroxyethyl)(methylamino))ethyl)(6-oxo-6-((undecanyloxy)hexyl)amino)octanoate]
average radiation intensity, times that of ALC-0315 (6 h): 3.39 times
average radiation intensity, times that of HHMA (6 h): 4.47 times
average radiation intensity, times that of SM-102 (6 h): 4.21 times
average radiation intensity, times that of compound 21 (6 h): 4.76 times
average radiation intensity, times that of compound 23 (6 h): 4.81 times
mRNA expression level, times that of YK-204 (6 h): 81.10 times
mRNA expression level, times that of YK-223 (6 h): 276.05 times
average radiation intensity (mRNA expression) (6 h): 2858500
expression level, times that of YK-215 (6 hours): 56.53 times
expression level, times that of YK-217 (6 hours): 116.27 times
average radiation intensity, times that of ALC-0315 (24 h): 11.11 times
average radiation intensity, times that of HHMA (24 h): 18.47 times
average radiation intensity, times that of SM-102 (24 h): 17.49 times
average radiation intensity, times that of compound 21 (24 h): 18.76 times
average radiation intensity, times that of compound 23 (24 h): 18.27 times
mRNA expression level, times that of YK-204 (24 h): 387.32 times
mRNA expression level, times that of YK-223 (24 h): 1134.20 times
average radiation intensity (mRNA expression) (24 h): 2025680
expression level, times that of YK-215 (24 hours): 297.24 times
expression level, times that of YK-217 (24 hours): 764.41 times
average radiation intensity, times that of ALC-0315 (48 h): 19.16 times
average radiation intensity, times that of HHMA (48 h): 24.82 times
average radiation intensity, times that of SM-102 (48 h): 23.91 times
average radiation intensity, times that of compound 21 (48 h): 24.34 times
average radiation intensity, times that of compound 23 (48 h): 22.78 times
mRNA expression level, times that of YK-204 (48 h): 299.49 times
mRNA expression level, times that of YK-223 (48 h): 1077.82 times
average radiation intensity (mRNA expression) (48 h): 730760
expression level, times that of YK-215 (48 hours): 200.76 times
expression level, times that of YK-217 (48 hours): 713.63 times
average radiation intensity, times that of ALC-0315 (7 d): 4.58 times
average radiation intensity, times that of HHMA (7 d): 5.68 times
average radiation intensity, times that of SM-102 (7 d): 5.11 times
average radiation intensity, times that of compound 21 (7 d): 4.94 times
average radiation intensity, times that of compound 23 (7 d): 5.17 times
expression level, times that of YK-215 (7 d): 29.56 times
expression level, times that of YK-217 (7 d): 57.65 times
mRNA expression level, times that of YK-204 (7 d): 39.99 times
mRNA expression level, times that of YK-223 (7 d): 68.53 times
average radiation intensity (mRNA expression) (7 d): 30151
mRNA expression in mice can reach, times that of YK-204 (time point not stated): 380 times

CCCCCCCCC(CCCCCCCC)COC(=O)CCCCCN(CCCCCC(=O)OCC(CCCCCCCC)CCCCCCCC)CCN(C)CCO [YK-209, bis(2-octyldecyl)-6,6′-((2-(2-hydroxyethyl(methyl)amino)ethyl)azadialkyl)dihexanoate]
average radiation intensity, times that of ALC-0315 (6 h): 3.00 times
average radiation intensity, times that of HHMA (6 h): 3.95 times
average radiation intensity, times that of SM-102 (6 h): 3.72 times
average radiation intensity, times that of compound 21 (6 h): 4.20 times
average radiation intensity, times that of compound 23 (6 h): 4.25 times
mRNA expression level, times that of YK-204 (6 h): 71.62 times
mRNA expression level, times that of YK-223 (6 h): 243.77 times
average radiation intensity (mRNA expression) (6 h): 2524250
expression level, times that of YK-215 (6 hours): 49.92 times
expression level, times that of YK-217 (6 hours): 102.67 times
average radiation intensity, times that of ALC-0315 (24 h): 10.25 times
average radiation intensity, times that of HHMA (24 h): 17.05 times
average radiation intensity, times that of SM-102 (24 h): 16.14 times
average radiation intensity, times that of compound 21 (24 h): 17.31 times
average radiation intensity, times that of compound 23 (24 h): 16.86 times
mRNA expression level, times that of YK-204 (24 h): 357.40 times
mRNA expression level, times that of YK-223 (24 h): 1046.60 times
average radiation intensity (mRNA expression) (24 h): 1869220
expression level, times that of YK-215 (24 hours): 274.28 times
expression level, times that of YK-217 (24 hours): 705.37 times
average radiation intensity, times that of ALC-0315 (48 h): 16.50 times
average radiation intensity, times that of HHMA (48 h): 21.36 times
average radiation intensity, times that of SM-102 (48 h): 20.59 times
average radiation intensity, times that of compound 21 (48 h): 20.95 times
average radiation intensity, times that of compound 23 (48 h): 19.61 times
mRNA expression level, times that of YK-204 (48 h): 257.82 times
mRNA expression level, times that of YK-223 (48 h): 927.85 times
average radiation intensity (mRNA expression) (48 h): 629080
expression level, times that of YK-215 (48 hours): 172.82 times
expression level, times that of YK-217 (48 hours): 614.34 times
average radiation intensity, times that of ALC-0315 (7 d): 4.00 times
average radiation intensity, times that of HHMA (7 d): 4.96 times
average radiation intensity, times that of SM-102 (7 d): 4.47 times
average radiation intensity, times that of compound 21 (7 d): 4.32 times
average radiation intensity, times that of compound 23 (7 d): 4.52 times
expression level, times that of YK-215 (7 d): 25.84 times
expression level, times that of YK-217 (7 d): 50.40 times
mRNA expression level, times that of YK-204 (7 d): 34.96 times
mRNA expression level, times that of YK-223 (7 d): 59.91 times
average radiation intensity (mRNA expression) (7 d): 26361
